Results: patent publication US9926282B2, “Phthalazinones and isoquinolinones as rock inhibitors” (BRISTOL-MYERS SQUIBB COMPANY, priority 2013, dated 2018)

Legend:
[1] = target: ROCK1 (Homo sapiens (Human), UniProt Q13464); assay: ROCK assay (LABCHIP peptide phosphorylation), ROCK1; type: biochemical; conditions: 5 μM ATP, 1.5 μM peptide substrate; read-out: ROCK1 IC50
[2] = target: ROCK2 (Homo sapiens (Human), UniProt O75116); assay: ROCK assay (LABCHIP peptide phosphorylation), ROCK2; type: biochemical; conditions: 5 μM ATP, 1.5 μM peptide substrate
Sequence of ROCK2 (O75116 whole entry, species assumed): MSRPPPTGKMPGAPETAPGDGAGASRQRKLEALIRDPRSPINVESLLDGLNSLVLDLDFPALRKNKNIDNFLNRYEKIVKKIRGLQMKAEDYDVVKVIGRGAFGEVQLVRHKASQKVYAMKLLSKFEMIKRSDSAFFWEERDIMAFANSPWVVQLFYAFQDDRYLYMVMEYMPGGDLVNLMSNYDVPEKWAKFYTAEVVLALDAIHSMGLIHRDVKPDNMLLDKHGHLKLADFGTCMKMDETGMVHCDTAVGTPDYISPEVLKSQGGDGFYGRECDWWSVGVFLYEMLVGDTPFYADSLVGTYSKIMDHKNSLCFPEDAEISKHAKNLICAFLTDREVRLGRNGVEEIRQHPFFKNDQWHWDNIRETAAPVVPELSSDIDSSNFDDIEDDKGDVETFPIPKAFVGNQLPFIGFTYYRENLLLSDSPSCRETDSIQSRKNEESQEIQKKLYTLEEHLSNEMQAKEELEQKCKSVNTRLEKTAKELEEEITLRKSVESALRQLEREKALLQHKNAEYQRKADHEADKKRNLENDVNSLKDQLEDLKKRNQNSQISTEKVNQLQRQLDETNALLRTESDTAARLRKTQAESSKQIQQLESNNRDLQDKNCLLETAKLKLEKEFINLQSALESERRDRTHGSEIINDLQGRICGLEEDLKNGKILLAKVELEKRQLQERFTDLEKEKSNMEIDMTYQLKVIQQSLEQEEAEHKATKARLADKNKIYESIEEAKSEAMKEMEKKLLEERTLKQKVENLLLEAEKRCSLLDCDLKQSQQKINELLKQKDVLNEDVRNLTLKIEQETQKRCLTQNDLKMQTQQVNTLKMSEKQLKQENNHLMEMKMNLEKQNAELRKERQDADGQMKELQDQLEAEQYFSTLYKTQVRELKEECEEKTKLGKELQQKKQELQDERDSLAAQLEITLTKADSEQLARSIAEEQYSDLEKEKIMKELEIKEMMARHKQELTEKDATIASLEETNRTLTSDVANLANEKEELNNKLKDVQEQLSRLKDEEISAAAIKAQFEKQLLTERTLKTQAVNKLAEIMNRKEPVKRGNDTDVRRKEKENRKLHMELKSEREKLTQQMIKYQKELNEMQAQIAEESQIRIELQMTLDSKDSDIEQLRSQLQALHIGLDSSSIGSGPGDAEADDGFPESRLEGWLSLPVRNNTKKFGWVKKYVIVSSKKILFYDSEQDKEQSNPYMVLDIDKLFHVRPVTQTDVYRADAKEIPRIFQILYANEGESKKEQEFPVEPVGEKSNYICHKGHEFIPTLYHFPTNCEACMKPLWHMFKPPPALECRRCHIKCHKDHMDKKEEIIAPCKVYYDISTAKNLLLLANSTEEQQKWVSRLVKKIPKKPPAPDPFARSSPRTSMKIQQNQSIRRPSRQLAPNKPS

Sequence of ROCK1 (Q13464 whole entry, species assumed): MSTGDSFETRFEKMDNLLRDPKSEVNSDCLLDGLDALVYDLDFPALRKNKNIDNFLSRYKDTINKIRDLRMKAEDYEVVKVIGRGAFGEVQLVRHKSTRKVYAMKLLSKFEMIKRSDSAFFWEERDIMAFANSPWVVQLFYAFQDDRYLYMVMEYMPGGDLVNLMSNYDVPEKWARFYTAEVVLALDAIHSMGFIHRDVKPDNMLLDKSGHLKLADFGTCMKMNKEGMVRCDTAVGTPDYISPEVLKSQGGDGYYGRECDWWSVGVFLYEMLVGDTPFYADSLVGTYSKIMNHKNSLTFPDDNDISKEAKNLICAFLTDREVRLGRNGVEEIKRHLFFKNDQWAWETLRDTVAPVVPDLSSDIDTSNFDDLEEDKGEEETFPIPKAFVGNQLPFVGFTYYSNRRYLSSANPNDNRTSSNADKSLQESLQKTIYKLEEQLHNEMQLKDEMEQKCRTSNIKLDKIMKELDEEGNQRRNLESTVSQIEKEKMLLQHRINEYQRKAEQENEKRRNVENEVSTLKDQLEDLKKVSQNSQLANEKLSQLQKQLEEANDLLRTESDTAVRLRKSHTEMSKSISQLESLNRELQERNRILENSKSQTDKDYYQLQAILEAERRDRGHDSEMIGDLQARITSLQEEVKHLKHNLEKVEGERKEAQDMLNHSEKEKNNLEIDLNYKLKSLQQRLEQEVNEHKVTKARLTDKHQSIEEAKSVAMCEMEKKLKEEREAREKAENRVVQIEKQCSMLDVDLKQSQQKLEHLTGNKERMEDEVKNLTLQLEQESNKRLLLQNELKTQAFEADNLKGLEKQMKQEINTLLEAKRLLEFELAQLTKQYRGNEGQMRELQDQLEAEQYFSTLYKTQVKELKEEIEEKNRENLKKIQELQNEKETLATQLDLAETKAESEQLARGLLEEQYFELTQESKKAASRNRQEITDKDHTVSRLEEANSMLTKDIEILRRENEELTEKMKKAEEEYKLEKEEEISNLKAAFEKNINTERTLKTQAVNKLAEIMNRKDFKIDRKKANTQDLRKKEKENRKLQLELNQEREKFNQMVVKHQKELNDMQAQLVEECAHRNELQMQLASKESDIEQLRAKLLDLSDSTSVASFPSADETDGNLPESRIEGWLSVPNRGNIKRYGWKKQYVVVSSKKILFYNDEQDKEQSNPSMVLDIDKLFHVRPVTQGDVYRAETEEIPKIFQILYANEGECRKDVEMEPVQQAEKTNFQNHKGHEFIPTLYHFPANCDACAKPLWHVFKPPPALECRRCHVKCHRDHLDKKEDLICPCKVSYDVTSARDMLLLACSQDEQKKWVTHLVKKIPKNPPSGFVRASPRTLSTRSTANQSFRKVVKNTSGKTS

SMILES	IC50 [1] [nM]	IC50 [2] [nM]
CCOc1cc(NC(=O)c2nn(CC(C)(C)O)c3ccccc23)ccc1-c1n[nH]c(=O)c2ccccc12 [Example 346, N-(3-Ethoxy-4-(4-oxo-3,4-dihydrophthalazin-1-yl)phenyl)-1-(2-hydroxy-2-methylpropyl)-1H-indazole-3-carboxamide]	1000 to 50000	101 to 1000
O=C(Nc1ccc(-c2n[nH]c(=O)c3ccccc23)cc1)c1cnn(CC(F)F)c1 [Example 386, 1-(2,2-Difluoroethyl)-N-(4-(4-oxo-3,4-dihydrophthalazin-1-yl)phenyl)-1H-pyrazole-4-carboxamide]	101 to 1000	0.1 to 100
O=C(Nc1ccc(-c2n[nH]c(=O)c3ccccc23)cc1)c1n[nH]c2ccc(Cl)cc12 [Example 114, 5-chloro-N-[4-(4-oxo-3,4-dihydrophthalazin-1-yl)phenyl]-1H-indazole-3-carboxamide]	101 to 1000	0.1 to 100
CC(C)n1nc(C(=O)Nc2ccc(-c3n[nH]c(=O)c4ccccc34)c(CO)c2)c2ccccc21 [Example 364, N-(3-(Hydroxymethyl)-4-(4-oxo-3,4-dihydrophthalazin-1-yl)phenyl)-1-isopropyl-1H-indazole-3-carboxamide]	101 to 1000	0.1 to 100
O=C(Cc1ccc(-c2n[nH]c(=O)c3ccccc23)cc1)N1CCc2cc(OC(F)(F)F)cc(Br)c21 [Example 253, 4-(4-(2-(7-Bromo-5-(trifluoromethoxy)indolin-1-yl)-2-oxoethyl)phenyl)phthalazin-1(2H)-one]	1000 to 50000	101 to 1000
CC(C(=O)N1Cc2ccccc2C1)c1ccc(-c2n[nH]c(=O)c3ccccc23)cc1 (stereo not drawn) [Example 43, 4-(4-(1-(Isoindolin-2-yl)-1-oxopropan-2-yl)phenyl)phthalazin-1(2H)-one]	1000 to 50000	101 to 1000
COc1ccc2c(c1)CN(C(=O)Cc1ccc(-c3n[nH]c(=O)c4ccccc34)cc1)C2 [Example 3, 4-(4-(2-(5-Methoxyisoindolin-2-yl)-2-oxoethyl)phenyl)phthalazin-1(2H)-one]	101 to 1000	0.1 to 100
Cn1ncc(C(=O)Nc2ccc(-c3n[nH]c(=O)c4ccccc34)cc2)c1-c1ccccc1 [Example 192, 1-methyl-N-[4-(4-oxo-3,4-dihydrophthalazin-1-yl)phenyl]-5-phenyl-1H-pyrazole-4-carboxamide]	101 to 1000	0.1 to 100
Cc1cc(NC(=O)c2cnn3cc(OCCN4CCCC4)ccc23)ccc1-c1n[nH]c(=O)c2ccccc12 [Example 325, N-[3-methyl-4-(4-oxo-3,4-dihydrophthalazin-1-yl)phenyl]-6-[2-(pyrrolidin-1-yl)ethoxy] pyrazolo[1,5-a]pyridine-3-carboxamide]	101 to 1000	0.1 to 100
COc1ccccc1-n1nnc(C(=O)Nc2ccc(-c3n[nH]c(=O)c4ccccc34)cc2)c1C [Example 405, 1-(2-Methoxyphenyl)-5-methyl-N-(4-(4-oxo-3,4-dihydrophthalazin-1-yl)phenyl)-1H-1,2,3-triazole-4-carboxamide]	0.1 to 100	0.1 to 100
O=C(Nc1ccc(-c2n[nH]c(=O)c3ccccc23)cc1)c1nc2c(s1)CCCC2 [Example 53, N-[4-(4-oxo-3,4-dihydrophthalazin-1-yl)phenyl]-4,5,6,7-tetrahydro-1,3-benzothiazole-2-carboxamide]	0.1 to 100	0.1 to 100
O=C(c1ccc2c(c1)CCN2C(=O)Cc1ccc(-c2n[nH]c(=O)c3ccccc23)cc1)N1CCC(O)CC1 [Example 294, 4-(4-{2-[5-(4-hydroxypiperidine-1-carbonyl)-2,3-dihydro-1H-indol-1-yl]-2-oxoethyl}phenyl)-1,2-dihydrophthalazin-1-one]	101 to 1000	0.1 to 100
O=C(Nc1ccc(-c2n[nH]c(=O)c3ccccc23)cc1)c1ccccc1 [Example 67, N-[4-(4-oxo-3,4-dihydrophthalazin-1-yl)phenyl]benzamide]	101 to 1000	0.1 to 100
COc1ccccc1N1CCC(C(=O)Nc2ccc(-c3n[nH]c(=O)c4ccccc34)cc2)C1=O (stereo not drawn) [Example 216, 1-(2-methoxyphenyl)-2-oxo-N-[4-(4-oxo-3,4-dihydrophthalazin-1-yl)phenyl]pyrrolidine-3-carboxamide]	1000 to 50000	101 to 1000
CC(=O)N1CCC(C(=O)Nc2ccc(-c3n[nH]c(=O)c4ccccc34)cc2)CC1 [Example 55, 1-acetyl-N-[4-(4-oxo-3,4-dihydrophthalazin-1-yl)phenyl]piperidine-4-carboxamide]	1000 to 50000	1000 to 50000
CN1CCC(Cn2nc(C(=O)Nc3ccc(-c4n[nH]c(=O)c5ccccc45)cc3)c3ccccc32)CC1 [Example 356, 1-((1-Methylpiperidin-4-yl)methyl)-N-(4-(4-oxo-3,4-dihydrophthalazin-1-yl)phenyl)-1H-indazole-3-carboxamide]	0.1 to 100	101 to 1000
COc1ccc2c(c1)N(C(=O)Cc1ccc(-c3n[nH]c(=O)c4ccccc34)cc1)CC2 [Example 41, 4-{4-[2-(6-methoxy-2,3-dihydro-1H-indol-1-yl)-2-oxoethyl]phenyl}-1,2-dihydrophthalazin-1-one]	0.1 to 100	0.1 to 100

SMILES	IC50 [1] [nM]	IC50 [2] [nM]
O=C(Nc1ccc(-c2n[nH]c(=O)c3ccccc23)cc1)c1c[nH]c2ccncc12 [Example 166, N-[4-(4-oxo-3,4-dihydrophthalazin-1-yl)phenyl]-1H-pyrrolo[3,2-c]pyridine-3-carboxamide]	101 to 1000	0.1 to 100
Cc1cc(NC(=O)Cc2ccc(-c3n[nH]c(=O)c4ccccc34)cc2)on1 [Example 26, N-(3-methyl-1,2-oxazol-5-yl)-2-[4-(4-oxo-3,4-dihydrophthalazin-1-yl)phenyl]acetamide]	1000 to 50000	0.1 to 100
COc1cccc2cc(C(=O)Nc3ccc(-c4n[nH]c(=O)c5ccccc45)cc3)[nH]c12 [Example 129, 7-methoxy-N-[4-(4-oxo-3,4-dihydrophthalazin-1-yl)phenyl]-1H-indole-2-carboxamide]	0.1 to 100	0.1 to 100
Cc1c(C(=O)Nc2ccc(-c3n[nH]c(=O)c4ccccc34)cc2)nnn1-c1ccccc1F [Example 222, 1-(2-fluorophenyl)-5-methyl-N-[4-(4-oxo-3,4-dihydrophthalazin-1-yl)phenyl]-1H-1,2,3-triazole-4-carboxamide]	0.1 to 100	0.1 to 100
O=C(Nc1ccc(-c2n[nH]c(=O)c3ccccc23)c(CO)c1)c1nn(CC2CCOC2)c2cc(F)ccc12 (stereo not drawn) [Example 368, 6-Fluoro-N-(3-(hydroxymethyl)-4-(4-oxo-3,4-dihydrophthalazin-1-yl)phenyl)-1-((tetrahydrofuran-3-yl)methyl)-1H-indazole-3-carboxamide]	1000 to 50000	0.1 to 100
CC(C)(O)Cn1cc(C(=O)Nc2ccc(-c3n[nH]c(=O)c4ccccc34)cc2)c2cccnc21 [Example 169, 1-(2-hydroxy-2-methylpropyl)-N-[4-(4-oxo-3,4-dihydrophthalazin-1-yl)phenyl]-1H-pyrrolo[2,3-b]pyridine-3-carboxamide]	0.1 to 100	0.1 to 100
O=C(Nc1ccc(-c2n[nH]c(=O)c3ccccc23)cc1)c1nn(CCC(=O)N2CCOCC2)c2ccccc12 [Example 337, 1-(3-Morpholino-3-oxopropyl)-N-(4-(4-oxo-3,4-dihydrophthalazin-1-yl)phenyl)-1H-indazole-3-carboxamide]	0.1 to 100	0.1 to 100
COc1ccc2c(=O)[nH]cc(-c3ccc(OC(=O)N4Cc5ccccc5C4)cc3)c2c1 [Example 269, 4-(6-Methoxy-1-oxo-1,2-dihydroisoquinolin-4-yl)phenyl isoindoline-2-carboxylate]	1000 to 50000	0.1 to 100
CC(C)(C)c1cc(NC(=O)Cc2ccc(-c3n[nH]c(=O)c4ccccc34)cc2)no1 [Example 278, N-(5-tert-butyl-1,2-oxazol-3-yl)-2-[4-(4-oxo-3,4-dihydrophthalazin-1-yl)phenyl]acetamide]	101 to 1000	0.1 to 100
O=C(Nc1ccc(-c2n[nH]c(=O)c3ccccc23)cc1)N1CC2(CCNCC2)c2ccccc21 [Example 371, N-(4-(4-Oxo-3,4-dihydrophthalazin-1-yl)phenyl)spiro[indoline-3,4′-piperidine]-1-carboxamide]	101 to 1000	101 to 1000
CCOc1ccc2c(c1)N(C(=O)Cc1ccc(-c3n[nH]c(=O)c4ccccc34)cc1)CC2 [Example 33, 4-{4-[2-(6-ethoxy-2,3-dihydro-1H-indol-1-yl)-2-oxoethyl]phenyl}-1,2-dihydrophthalazin-1-one]	0.1 to 100	0.1 to 100
O=C(Nc1ccc(-c2c[nH]c(=O)c3ccccc23)cc1)c1ccc(N2CCCCC2)cc1 [Example 249, N-(4-(1-Oxo-1,2-dihydroisoquinolin-4-yl)phenyl)-4-(piperidin-1-yl)benzamide]	0.1 to 100	0.1 to 100
CCOc1cc(NC(=O)c2nn(CC3CCOC3)c3ccccc23)ccc1-c1n[nH]c(=O)c2ccccc12 (stereo not drawn) [Example 347, N-(3-Ethoxy-4-(4-oxo-3,4-dihydrophthalazin-1-yl)phenyl)-1-((tetrahydrofuran-3-yl)methyl)-1H-indazole-3-carboxamide]	1000 to 50000	101 to 1000
O=C(Nc1ccc(-c2n[nH]c(=O)c3ccccc23)cc1)c1cn2ccccc2n1 [Example 89, N-[4-(4-oxo-3,4-dihydrophthalazin-1-yl)phenyl]imidazo[1,2-a]pyridine-2-carboxamide]	101 to 1000	0.1 to 100
CC(C)(O)Cn1nc(C(=O)Nc2ccc(-c3n[nH]c(=O)c4ccccc34)cc2)c2ccc(F)cc21 [Example 158, 6-fluoro-1-(2-hydroxy-2-methylpropyl)-N-[4-(4-oxo-3,4-dihydrophthalazin-1-yl)phenyl]-1H-indazole-3-carboxamide]	0.1 to 100	0.1 to 100
O=C(Nc1ccc(-c2n[nH]c(=O)c3ccccc23)cc1)c1nn(CCCO)c2ccccc12 [Example 164, 1-(3-hydroxypropyl)-N-[4-(4-oxo-3,4-dihydrophthalazin-1-yl)phenyl]-1H-indazole-3-carboxamide]	0.1 to 100	0.1 to 100
